Here are results for 2 compounds from US11202792B2, “CD99 inhibitors and their uses” (GEORGETOWN UNIVERSITY, priority 2016, dated 2021).

A word on the IC50: it is the concentration at which inhibition is half-maximal. Read a low IC50 as greater potency. What is called Kd is a measure of binding affinity in units of concentration.

In assay [1] the test system is TC-71 and RD-ES cell lines. Put plainly: Dose-dependent cytotoxicity assay in ES cell lines. Format: cell-based, human. To be noted: dose-response at 1, 3, 10 and 30 μmol/L in TC-71 and RD-ES. How it is done: The plate was installed into the RTCA system, and the electrical impedance (represented as cell index) was measured every 10 min.
The primary screen was based on a direct binding assay using surface plasmon resonance (SPR) technology with purified extracellular domain of CD99 (CD99-ECD) protein that was immobilized on a neutravidin-coated sensor chip. […] A negative control protein was used in order to eliminate non-specific binders. […] Dose-response studies were performed with 2 compounds at 1, 3, 10 and 30 μmol/L concentration in ES cell lines.

The target in assay [2] is T1, recombinant human full-length CD99 (Homo sapiens, UniProt P14209).
T1 construct: Purified recombinant human full-length CD99 produced in HEK293 cells was purchased from Origene; purchased Origene #TP304056; host or cells: HEK293
T1 sequence (P14209 23-185): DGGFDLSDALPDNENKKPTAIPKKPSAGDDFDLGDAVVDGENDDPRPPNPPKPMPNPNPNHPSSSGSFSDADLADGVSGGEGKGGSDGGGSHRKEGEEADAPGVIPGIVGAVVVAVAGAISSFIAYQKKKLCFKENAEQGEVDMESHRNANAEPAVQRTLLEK
Put plainly: SPR binding kinetics, recombinant human full-length CD99 (Biacore T200). Particulars: full-length CD99 produced in HEK293 cells, immobilized by amine coupling. As for the experimental part: The initial binding screening of the NCI/DTP chemical libraries was performed on a Biacore T200 instrument at room temperature using a neutravidin-coated CM5 chip (GE Healthcare Bio-Sciences) coupled with biotinylated CD99-ECD on one flow cell at levels of ˜3,000 response units (RU). A negative control protein, Ly6k was immobilized on another flow cell of the same chip (˜11,000 RU), and the first flow cell was left empty for reference subtraction due to nonspecific binding. Analytes were diluted in HBS—P buffer [10 mmol/L HEPES, pH 7.4, 150 mmol/L NaCl, % 0.05 (v/v) surfactant P20], and were injected individually over all flow cells. The running buffer contained appropriate concentrations of DMSO in HBS—P to match the DMSO level of the samples. Kinetic studies for antibody- or compound-CD99 interactions were performed in a Biacore T200 instrument. Purified recombinant human full-length CD99 produced in HEK293 cells was purchased from Origene (Rockville, Md.) (#TP304056). The recombinant human full-length CD99 was immobilized on a CM5 sensor chip by the amine-coupling method in sodium acetate buffer, pH 4.0 (˜10,000 RU). The first flow cell was left empty for background signal subtraction. Kinetic characterization of the interactions was done by injecting increasing concentrations of analytes as indicated over CD99-captured and control surface. KD (equilibrium dissociation constant) values were obtained using BiaEvaluation software (version 1.0) (Biacore) (GE Healthcare). All kinetic experiments were conducted in HBS—P buffer, which contained 1% (v/v) DMSO in case of compounds.
On the technique in general: Surface plasmon resonance follows binding to a sensor surface in real time, without labels.

Assay [3] addresses T2, CD99-ECD (extracellular domain of human CD99) (Homo sapiens, UniProt P14209).
T2 construct: the extracellular domain (Asp23-Asp122) of human CD99; made in house; host or cells: Escherichia coli BL21 (DE3)
T2 sequence (P14209 23-122): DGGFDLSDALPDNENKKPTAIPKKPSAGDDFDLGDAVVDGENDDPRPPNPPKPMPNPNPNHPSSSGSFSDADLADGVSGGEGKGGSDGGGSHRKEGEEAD
Put plainly: SPR binding, CD99-ECD purified from bacteria. An excerpt: The Champion™ pET104 BioEase™ Gateway® Expression System (Invitrogen (Carlsbad, Calif.)) was used to produce CD99-ECD fused with a N-terminal biotin tag, as directed by the manufacturer's instructions. Briefly, the DNA sequence encoding the extracellular domain (Asp23-Asp122) of human CD99 was amplified by PCR using pcDNA3.1 expression vector (Life Technologies (Carlsbad, Calif.)) carrying the full-length human CD99 cDNA transcript variant 1 as template. The primers were designed to include an additional C-terminal 6×His tag in the protein. The PCR product was gel purified with a QIAquick gel extraction kit (Qiagen (Hilden, Germany)) and subcloned into the pDONR 221 entry vector. The entry clone was then subjected to a recombination reaction with pET104.1-DEST destination vector, an expression vector with a N-terminal BioEase tag. The presence of an insert was confirmed by DNA sequencing.
CD99-ECD was expressed in Escherichia coli BL21 (DE3) cells. A saturated overnight culture of cells was diluted by 20-fold into fresh LB medium containing 100 μg/mL ampicillin. To induce the expression of CD99-ECD, cells were grown to OD600nm 0.5-0.7 at 37° C. and induced by the addition of isopropyl-β-D-thiogalactopyranoside to a final concentration of 1 mmol/L. The cultures were grown for an additional 3 h at 37° C. Cells were harvested by centrifugation at 8,000×g for 15 min, resuspended in 50 mmol/L sodium phosphate buffer, pH 7.4, containing 500 mmol/L NaCl, 10 mmol/L imidazole and 1 Complete EDTA-free protease inhibitor tablet/50 mL (Roche Diagnostics), and lysed by sonication. […] Protein fractions were finally eluted with a linear gradient of imidazole (10 to 1000 mmol/L) in the same buffer. The purity of the protein was assessed by SDS-PAGE followed by Coomassie staining. The eluted fractions were stored at −80° C. for further use. […]

The subject of a further assay is TC-71 ES cells. Put plainly: Cell viability IC50, TC-71. It is filed as cell-based, human. Particulars: TC-71 cells, WST-1, 48 h (FIG. 10B). On the technique in general: Tetrazolium assays rely on reduction of a dye to a coloured formazan, in cell work by metabolically active cells.
The next assay has as its system A4573 ES cells. Put plainly: Cell viability IC50 (WST-1), A4573. Format: cell-based, human. Particulars: WST-1, 48 h (FIG. 10B).
For assay [4], the system named is TC-71, 6647 and RDES ES cells. In words: Soft agar colony formation assay, ES cells. Particulars: dose-dependent. It is filed as cell-based, human. As for the experimental part:
Anchorage-independent growth was determined in 0.33% agarose (Sea-Plaque Agarose, Lonza) with a 0.5% agarose underlay. […] Colonies were counted after 7-12 days.

A further assay concerns TC-CD99-shRNA #1 cells. Put plainly: Soft agar colony formation assay, CD99 knockdown cells. It is filed as cell-based, human.

Turning to `C=C(Cl)C(Cl)(CBr)CCC(Br)C(C)(C)Cl` (stereo not shown) [NSC662825], inhibition in assay [1] was half-maximal at 9 µM (IC50).
With clofarabine-5′-triphosphate, the Kd in assay [2] was found to be 3.7 µM; in assay [3], 7.6 µM. Besides, the values for the IC50 in the assay on TC-71 ES cells and with A4573 ES cells were 0.17 µM and 0.46 µM, respectively. The “colony formation (anchorage-independent growth)” value in assay [4] is listed as “inhibited”. Also, in the assay with TC-CD99-shRNA #1 cells, the “colony formation in CD99 knockdown cells” value was “diminished”.
